Test results as given in ChEMBL document CHEMBL4431353, “Optimization of a Series of Bivalent Triazolopyridazine Based Bromodomain and Extraterminal Inhibitors: The Discovery of (3R)-4-[2-[4-[1-(3-Methoxy-[1,2,4]triazolo[4,3-b]pyridazin-6-yl)-4-piperidyl]phenoxy]ethyl]-1,3-dimethyl-piperazin-2-one (AZD5153)” (J Med Chem, 2016).
Values after ≈ are worked out from the molar mass of the structure shown.

Columns and labels:
[1] = biological target: T1, Bromodomain-containing protein 4 (Homo sapiens, UniProt O60885); assay: Displacement of Alexa647-labeled JQ1 derivative from wild type BRD4 tandem domain (44 to 460 residues) (unknown origin) incubated for 1 hr by fluorescence polarization assay
[2] = Oral bioavailability in dog; type: ADME, organism-based, Canis lupus familiaris; details: in vivo
[3] = Intrinsic clearance in rat hepatocytes assessed per million cells; type: ADME, cell-based, Hepatocyte; details: read-out: CLH
[4] = Volume of distribution at steady state in dog; type: ADME, Canis lupus familiaris; details: in vivo, read-out: Vdss
[5] = biological target: T1, Bromodomain-containing protein 4; assay: Inhibition of human BRD4 bromodomain 2 expressed in bacterial expression system
[6] = Oral bioavailability in rat; type: ADME, organism-based; details: in vivo
[7] = Plasma clearance in rat; type: ADME
[8] = biological target: T2, Bromodomain testis-specific protein (Homo sapiens, UniProt Q58F21); assay: Inhibition of human BRDT bromodomain 1 expressed in bacterial expression system
[9] = Unbound fraction in rat plasma; type: ADME, cell-free
[10] = Metabolic stability in hepatic microsomes; type: ADME, Liver, Microsome
[11] = biological target: T3, Bromodomain-containing protein 3 (Homo sapiens, UniProt Q15059); assay: Inhibition of human BRD3 bromodomain 1 expressed in bacterial expression system
[12] = biological target: Bromodomain-containing protein 4 (Homo sapiens, UniProt O60885, N140A)
[13] = Lipophilicity, log D of compound at pH 7.4; type: physicochemical; details: buffer
[14] = biological target: Bromodomain-containing protein 4 (Homo sapiens, UniProt O60885, N433A)
[15] = biological target: Transcription initiation factor TFIID subunit 1-like (Homo sapiens, UniProt Q8IZX4); assay: Inhibition of human TAF1L bromodomain 2 expressed in bacterial expression system
[16] = biological target: T3, Bromodomain-containing protein 3; assay: Inhibition of human BRD3 bromodomain 2 expressed in bacterial expression system
[17] = Unbound fraction in dog plasma; type: ADME, cell-free, Canis lupus familiaris
[18] = biological target: T2, Bromodomain testis-specific protein; assay: Inhibition of human BRDT bromodomain 2 expressed in bacterial expression system
[19] = biological target: T4, Bromodomain-containing protein 2 (Homo sapiens, UniProt P25440); assay: Inhibition of human BRD2 bromodomain 2 expressed in bacterial expression system
[20] = biological target: Histone acetyltransferase p300 (Homo sapiens, UniProt Q09472); assay: Inhibition of human EP300 expressed in bacterial expression system
[21] = Volume of distribution at steady state in rat; type: ADME; details: in vivo, read-out: Vdss
[22] = Unbound fraction in human plasma; type: ADME, cell-free
[23] = biological target: T1, Bromodomain-containing protein 4; assay: Inhibition of BRD4 in human LNCAP cells assessed as down regulation of nuclear AR level by immunofluorescence assay; type: cell-based
Mus musculus = assay: In vivo inhibition of BRD4 in SCID mouse xenografted with human MV4-11 cells assessed as free plasma concentration required to decrease c-Myc expression in tumor at 10 mg/kg, po administered as single dose measured after 8 hrs by qPCR method; type: functional
MV4-11 = assay: Antitumor activity against human MV4-11 cells xenografted in SCID mouse assessed as tumor growth inhibition at 10 mg/kg, po administered daily through oral gavage for 14 days measured twice per week during compound dosing relative to control; type: functional; details: MV4-11, po, 336 h, read-out: TGI
[24] = biological target: T1, Bromodomain-containing protein 4; assay: Inhibition of BRD4 in human MM1S cells assessed as down regulation of c-Myc incubated for 16 hrs by flow cytometry; type: cell-based
[25] = biological target: Transcription initiation factor TFIID subunit 1 (Homo sapiens, UniProt P21675); assay: Inhibition of human TAF1 bromodomain 2 expressed in bacterial expression system
[26] = Toxicity in SCID mouse xenografted with human MV4-11 cells assessed as body weight loss at 10 mg/kg, po administered daily through oral gavage for 14 days relative to control; type: organism-based; details: in vivo, 336 h
[27] = Apparent permeability from apical to basolateral side in human Caco2 cells; type: ADME, cell-based; details: Caco-2
[28] = biological target: T5, Bromodomain-containing protein 9 (Homo sapiens, UniProt Q9H8M2); assay: Inhibition of human BRD9 expressed in bacterial expression system
T5 sequence (Q9H8M2 whole entry): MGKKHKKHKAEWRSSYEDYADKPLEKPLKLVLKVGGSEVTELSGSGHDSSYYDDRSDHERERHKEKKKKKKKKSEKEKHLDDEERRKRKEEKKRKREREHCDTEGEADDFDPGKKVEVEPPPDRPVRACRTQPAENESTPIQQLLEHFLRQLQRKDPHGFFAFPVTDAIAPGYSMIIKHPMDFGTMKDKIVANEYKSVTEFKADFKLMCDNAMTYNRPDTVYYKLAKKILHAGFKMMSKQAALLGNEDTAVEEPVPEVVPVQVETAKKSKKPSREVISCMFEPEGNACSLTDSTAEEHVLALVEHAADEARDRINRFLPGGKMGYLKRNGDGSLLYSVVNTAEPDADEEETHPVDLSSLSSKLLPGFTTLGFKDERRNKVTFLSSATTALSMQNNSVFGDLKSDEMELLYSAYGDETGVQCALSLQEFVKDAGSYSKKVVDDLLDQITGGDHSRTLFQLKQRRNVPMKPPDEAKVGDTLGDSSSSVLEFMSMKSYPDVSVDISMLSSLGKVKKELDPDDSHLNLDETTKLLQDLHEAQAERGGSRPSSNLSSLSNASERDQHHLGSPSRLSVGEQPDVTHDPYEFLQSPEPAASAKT

[29] = biological target: T1, Bromodomain-containing protein 4; assay: Inhibition of BRD4 in human MCF7 cells assessed as down regulation of ERalpha after 18 to 24 hrs by Hoechst staining based cellomics arrayscan analysis; type: cell-based
[30] = Intrinsic clearance in human hepatocytes assessed per million cells; type: ADME, cell-based, Hepatocyte; details: read-out: CLH
[31] = Thermodynamic solubility of compound in pH 7.4 solution; type: physicochemical; details: buffer, read-out: Therm_solubility
[32] = biological target: T1, Bromodomain-containing protein 4; assay: Inhibition of human BRD4 bromodomain 1 expressed in bacterial expression system
CREB-binding protein = CREB-binding protein (Homo sapiens, UniProt Q92793); assay: Inhibition of human CREBBP expressed in bacterial expression system
[33] = Intrinsic clearance in dog hepatocytes assessed per million cells; type: ADME, cell-based, Canis lupus familiaris, Hepatocyte; details: read-out: CLH
MM1.S = assay: Growth inhibition of human MM1S cells after 72 hrs by alamar blue assay; type: functional
[34] = Plasma clearance in dog; type: ADME, Canis lupus familiaris
[35] = biological target: T4, Bromodomain-containing protein 2; assay: Inhibition of human BRD2 bromodomain 1 expressed in bacterial expression system

T3 sequence (Q15059 whole entry): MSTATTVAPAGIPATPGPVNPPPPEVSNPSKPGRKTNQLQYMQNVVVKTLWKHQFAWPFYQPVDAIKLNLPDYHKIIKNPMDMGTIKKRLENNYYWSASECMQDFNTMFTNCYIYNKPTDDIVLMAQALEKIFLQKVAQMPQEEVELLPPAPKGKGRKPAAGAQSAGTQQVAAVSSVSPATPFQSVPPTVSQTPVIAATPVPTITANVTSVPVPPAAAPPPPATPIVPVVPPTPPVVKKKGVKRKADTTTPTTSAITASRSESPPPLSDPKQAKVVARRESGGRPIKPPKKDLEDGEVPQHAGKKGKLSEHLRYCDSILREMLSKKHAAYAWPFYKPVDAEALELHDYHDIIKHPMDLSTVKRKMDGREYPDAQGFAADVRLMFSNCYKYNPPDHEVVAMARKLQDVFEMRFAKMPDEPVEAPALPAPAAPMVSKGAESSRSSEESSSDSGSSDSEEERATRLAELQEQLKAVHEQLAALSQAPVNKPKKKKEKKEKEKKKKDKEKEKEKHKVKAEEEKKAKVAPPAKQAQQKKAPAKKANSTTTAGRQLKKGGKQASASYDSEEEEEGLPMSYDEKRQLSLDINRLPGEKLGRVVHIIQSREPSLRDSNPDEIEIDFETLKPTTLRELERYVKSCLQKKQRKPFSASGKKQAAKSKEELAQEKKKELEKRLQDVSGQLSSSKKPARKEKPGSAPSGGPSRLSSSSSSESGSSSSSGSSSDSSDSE
T4 sequence (P25440 whole entry): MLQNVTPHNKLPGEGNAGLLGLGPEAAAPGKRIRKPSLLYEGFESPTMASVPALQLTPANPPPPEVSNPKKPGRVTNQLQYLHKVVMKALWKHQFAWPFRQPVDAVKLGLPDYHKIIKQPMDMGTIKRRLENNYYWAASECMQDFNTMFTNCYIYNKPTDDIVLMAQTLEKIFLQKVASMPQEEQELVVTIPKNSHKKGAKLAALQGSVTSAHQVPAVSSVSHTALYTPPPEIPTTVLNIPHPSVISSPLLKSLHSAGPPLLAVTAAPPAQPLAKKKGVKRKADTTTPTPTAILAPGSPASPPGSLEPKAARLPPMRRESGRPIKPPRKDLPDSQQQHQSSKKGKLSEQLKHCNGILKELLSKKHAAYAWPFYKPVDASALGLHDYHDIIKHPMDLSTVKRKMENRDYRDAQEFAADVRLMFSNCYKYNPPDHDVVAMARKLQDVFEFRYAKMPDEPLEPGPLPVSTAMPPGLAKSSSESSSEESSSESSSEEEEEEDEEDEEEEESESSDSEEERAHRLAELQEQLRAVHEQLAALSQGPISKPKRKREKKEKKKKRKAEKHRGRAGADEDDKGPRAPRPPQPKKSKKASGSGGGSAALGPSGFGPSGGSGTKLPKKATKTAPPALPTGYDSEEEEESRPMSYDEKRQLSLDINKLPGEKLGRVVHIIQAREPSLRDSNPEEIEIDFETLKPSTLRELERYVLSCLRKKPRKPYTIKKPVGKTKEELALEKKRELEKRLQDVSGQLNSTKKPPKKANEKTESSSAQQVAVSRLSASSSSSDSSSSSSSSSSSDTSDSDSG
Transcription initiation factor TFIID subunit 1, sequence (P21675 whole entry): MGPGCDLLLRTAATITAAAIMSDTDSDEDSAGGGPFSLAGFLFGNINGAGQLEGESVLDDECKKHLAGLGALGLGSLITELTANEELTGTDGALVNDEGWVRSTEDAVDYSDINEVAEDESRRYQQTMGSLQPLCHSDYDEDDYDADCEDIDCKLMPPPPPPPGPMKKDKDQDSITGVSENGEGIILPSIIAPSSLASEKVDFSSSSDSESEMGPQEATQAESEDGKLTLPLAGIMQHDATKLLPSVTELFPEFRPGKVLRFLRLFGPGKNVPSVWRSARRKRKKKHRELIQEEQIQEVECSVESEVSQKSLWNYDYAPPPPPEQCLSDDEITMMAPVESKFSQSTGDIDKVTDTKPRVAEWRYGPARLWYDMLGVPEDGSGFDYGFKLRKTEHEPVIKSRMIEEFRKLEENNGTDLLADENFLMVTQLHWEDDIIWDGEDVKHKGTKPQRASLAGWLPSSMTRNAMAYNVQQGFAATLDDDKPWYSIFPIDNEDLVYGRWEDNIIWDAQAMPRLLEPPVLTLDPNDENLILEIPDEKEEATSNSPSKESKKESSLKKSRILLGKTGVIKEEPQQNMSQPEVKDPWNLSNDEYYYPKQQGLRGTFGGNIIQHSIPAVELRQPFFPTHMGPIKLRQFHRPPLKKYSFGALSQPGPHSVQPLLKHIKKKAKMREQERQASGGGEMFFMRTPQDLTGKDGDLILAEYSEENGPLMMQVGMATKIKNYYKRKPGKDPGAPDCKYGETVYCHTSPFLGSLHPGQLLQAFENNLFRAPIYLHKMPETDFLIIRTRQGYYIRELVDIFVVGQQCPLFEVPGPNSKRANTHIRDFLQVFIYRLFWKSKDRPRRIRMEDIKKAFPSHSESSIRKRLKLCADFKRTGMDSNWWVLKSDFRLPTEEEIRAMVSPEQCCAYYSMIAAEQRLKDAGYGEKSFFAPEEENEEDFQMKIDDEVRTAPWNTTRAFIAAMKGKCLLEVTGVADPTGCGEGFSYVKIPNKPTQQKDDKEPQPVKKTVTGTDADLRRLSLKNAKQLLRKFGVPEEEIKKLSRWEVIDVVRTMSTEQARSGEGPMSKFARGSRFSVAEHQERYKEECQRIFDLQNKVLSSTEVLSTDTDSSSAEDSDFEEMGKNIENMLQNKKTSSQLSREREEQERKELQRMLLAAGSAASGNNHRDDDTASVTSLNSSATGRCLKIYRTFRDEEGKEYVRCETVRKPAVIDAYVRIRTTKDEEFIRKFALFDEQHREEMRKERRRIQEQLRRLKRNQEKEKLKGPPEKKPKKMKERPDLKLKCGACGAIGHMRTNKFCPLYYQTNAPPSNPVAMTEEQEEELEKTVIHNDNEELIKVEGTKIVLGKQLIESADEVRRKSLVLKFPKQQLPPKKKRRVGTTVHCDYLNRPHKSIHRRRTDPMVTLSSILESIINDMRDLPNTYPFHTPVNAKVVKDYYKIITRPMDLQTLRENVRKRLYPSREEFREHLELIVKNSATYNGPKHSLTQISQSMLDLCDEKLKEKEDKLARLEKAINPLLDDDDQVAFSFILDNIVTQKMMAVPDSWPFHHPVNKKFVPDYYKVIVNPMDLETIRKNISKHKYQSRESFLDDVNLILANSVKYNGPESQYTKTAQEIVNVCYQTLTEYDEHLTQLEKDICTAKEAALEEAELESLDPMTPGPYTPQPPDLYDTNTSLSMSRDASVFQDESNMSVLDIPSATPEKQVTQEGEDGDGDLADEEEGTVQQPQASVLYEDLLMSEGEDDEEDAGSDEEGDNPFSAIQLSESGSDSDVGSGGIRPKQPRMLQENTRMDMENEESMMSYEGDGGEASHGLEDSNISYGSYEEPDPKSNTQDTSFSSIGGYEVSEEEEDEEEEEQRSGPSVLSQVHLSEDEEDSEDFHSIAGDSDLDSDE

SMILES: COc1nnc2ccc(N3CCC(c4ccc(OCCN5CCN(C)C(=O)[C@H]5C)cc4)CC3)nn12 [AZD-5153]
- Ki [1]: 5.01 nM
- bioavailability [2]: 55%
- hepatocyte CLint [3]: 5 µL/min/1e6 cells
- Vd [4]: 0.4 L/kg
- Ki [5]: 126 nM
- bioavailability [6]: 81%
- clearance [7]: 4 mL/min/kg
- Ki [8]: 100 nM
- fraction unbound [9]: 0.04
- Stability [10]: Stable
- Ki [11]: 63.1 nM
- Ki [12]: 158 nM
- logD [13]: 2.3
- Ki [14]: 126 nM
- Ki [15]: 2510 nM
- Ki [16]: 398 nM
- fraction unbound [17]: 0.24
- Ki [18]: 501 nM
- Ki [19]: 251 nM
- Ki [20]: < 10000 nM
- Vd [21]: 0.9 L/kg
- fraction unbound [22]: 0.23
- IC50 [23]: 20 nM
- Cp(f) (Mus musculus): <0.2 µM
- inhibition in vivo at 10 mg/kg (MV4-11): > 100%
- IC50 [24]: 12.6 nM
- Ki [25]: 1260 nM
- Activity [26]: 8%
- Papp A→B [27]: 40 ×10⁻⁶ cm/s
- Ki [28]: 2510 nM
- IC50 [29]: 25.1 nM
- hepatocyte CLint [30]: 3.5 to 4 µL/min/1e6 cells
- solubility thermodynamic [31]: 1600 to 1650 µM (≈ 767 to 791 µg/mL)
- Ki [32]: 50.1 nM
- Ki (CREB-binding protein): 6310 nM
- hepatocyte CLint [33]: < 1 µL/min/1e6 cells
- GI50 (MM1.S): 5.01 nM
- clearance [34]: 6 mL/min/kg
- Ki [35]: 100 nM
